Results taken from PubChem BioAssay (NCI).
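Compound exposure: 48 hours, 5 concentrations, 96-well plates. TGI is the concentration that stops growth completely.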

Key:
Experiment in all cases: inhibition of tumour cell growth, NCI panel, 48 h
MCF7 breast = test system: MCF7 breast
PC-3 prostate = test system: PC-3 prostate
786-0 renal = test system: 786-0 renal
HOP-92 NSCLC = test system: HOP-92 NSCLC
KM12 colon = test system: KM12 colon
OVCAR-5 ovarian = test system: OVCAR-5 ovarian
SK-MEL-28 melanoma = test system: SK-MEL-28 melanoma
A549 NSCLC = test system: A549 NSCLC
RXF 393 renal = test system: RXF 393 renal
UACC-257 melanoma = test system: UACC-257 melanoma
CCRF-CEM leukemia = test system: CCRF-CEM leukemia
M14 melanoma = test system: M14 melanoma
UACC-62 melanoma = test system: UACC-62 melanoma
LOX IMVI melanoma = test system: LOX IMVI melanoma
HCT-15 colon = test system: HCT-15 colon
SW-620 colon = test system: SW-620 colon
SK-OV-3 ovarian = test system: SK-OV-3 ovarian
SK-MEL-2 melanoma = test system: SK-MEL-2 melanoma
MALME-3M melanoma = test system: MALME-3M melanoma

SMILES	TGI (MCF7 breast) [µM]	TGI (PC-3 prostate) [µM]	TGI (786-0 renal) [µM]	TGI (HOP-92 NSCLC) [µM]	TGI (KM12 colon) [µM]	TGI (OVCAR-5 ovarian) [µM]	TGI (SK-MEL-28 melanoma) [µM]	TGI (A549 NSCLC) [µM]	TGI (RXF 393 renal) [µM]	TGI (UACC-257 melanoma) [µM]	TGI (CCRF-CEM leukemia) [µM]	TGI (M14 melanoma) [µM]	TGI (UACC-62 melanoma) [µM]	TGI (LOX IMVI melanoma) [µM]	TGI (HCT-15 colon) [µM]	TGI (SW-620 colon) [µM]	TGI (SK-OV-3 ovarian) [µM]	TGI (SK-MEL-2 melanoma) [µM]	TGI (MALME-3M melanoma) [µM]
c1ccc(C2SCC3=Nc4ccccc4CN32)cc1 (centres undefined)	> 100	> 100	> 100	> 100	> 100	> 100	> 100	> 100	38.9	> 100	> 100	> 100	> 100	> 100	> 100	> 100	> 100	–	–
CC[C@@]1(O)C(=O)OCc2c1cc1n(c2=O)Cc2c-1nc1ccccc1c2CC[Si](C)(C)C	> 100	> 56.9	< 0.0266	> 100	–	6.59	> 100	7.61	0.371	–	–	0.0155	0.176	–	> 100	> 100	14	0.484	0.155
C/C(=N\Nc1ccc([N+](=O)[O-])cc1[N+](=O)[O-])c1ccc2ccccc2n1	> 100	> 100	> 100	> 100	> 100	> 100	> 100	> 100	> 100	> 100	–	> 100	> 100	–	> 100	> 100	> 100	> 100	> 100
COc1cc(/C=C/C(C)=O)ccc1OP(=O)(O)O	> 100	> 100	> 100	> 100	> 100	> 100	> 100	> 100	> 100	> 100	–	> 100	> 100	> 100	> 100	> 100	> 100	> 100	> 100
Cc1cccc(Nc2cn(COCc3ccccc3)c(=O)[nH]c2=O)c1	> 100	> 100	> 100	> 100	> 100	> 100	> 100	> 100	> 100	> 100	> 100	> 100	> 100	> 100	> 100	> 100	–	–	–
O=C1c2ccccc2CC12Cc1cc3c(cc1C2=O)CCC3 (centres undefined)	> 100	> 100	> 100	> 100	–	> 100	> 100	> 100	> 100	> 100	> 100	> 100	–	> 100	> 100	> 100	> 100	> 100	> 100
O=C1c2ccccc2-c2nc(-c3cccnc3)cc3c2c1nc1ccccc13	> 100	> 100	> 100	> 100	–	> 100	> 100	> 100	–	> 100	> 100	> 100	> 100	> 100	> 100	> 100	> 100	> 100	> 100
O=C(/C=C/c1ccc(O)c(O)c1)OCCc1cccc2ccccc12	25.7	16.3	12.7	23.8	23.4	31.7	16.9	19.7	25.1	28.2	11.2	20.3	15	–	9.64	18.9	–	10.2	19.5
CCCNC(=S)N/N=C/c1cccc(C)n1	> 100	> 100	> 100	> 100	> 100	> 100	–	73.5	> 100	> 100	7.05	27.2	57	> 100	> 100	–	> 100	58.9	> 100
CC(C)(C)c1ccc(CN2CCN(C(c3ccccc3)c3ccc(Cl)cc3)CC2)cc1 (centres undefined)	> 100	> 100	> 100	> 100	> 100	> 100	> 100	> 100	82.7	> 100	–	> 100	> 100	> 100	> 100	> 100	> 100	> 100	> 100
CC1CCCC2=C1C(c1ccc(Cl)cc1)n1c(s/c(=C\c3ccc(Cl)cc3)c1=O)=N2 (centres undefined)	> 100	> 100	> 100	> 100	> 100	> 100	> 100	> 100	> 100	> 100	> 100	> 100	> 100	> 100	> 100	> 100	> 100	> 100	–
CCC1CC2CN3CCc4c([nH]c5c(-c6c(OC)ccc7c8c([nH]c67)[C@]6(C(=O)OC)CC7CC(CC)C6N(CC8)C7)c(O)ccc45)[C@](C(=O)OC)(C2)C13 (some centres undefined)	22.9	30.2	28	26.6	32.3	33.2	29.9	36.9	26.8	47.2	> 100	78.2	29.6	28	31.4	25.6	68	47.2	–
COc1ccc(C2SCC(=O)N2c2ccc(-c3ccc(-n4c(-c5ccccc5)nc5ccccc5c4=O)cc3)cc2)cc1 (centres undefined)	> 100	> 100	> 100	> 100	79.8	87.2	> 100	> 100	–	> 100	> 100	> 100	> 100	> 100	> 100	> 100	> 100	86.7	> 100
CC(=O)O[C@H]1C[C@]2(C)C(CCC3O[C@@]32C)[C@@]2(CC(c3ccoc3)OC2O)[C@@H]1C (some centres undefined)	> 100	> 100	> 100	> 100	> 100	> 100	> 100	> 100	> 100	> 100	88.3	> 100	> 100	> 100	> 100	> 100	> 100	> 100	–
CC(=O)Nc1ncc(Sc2ccccc2C(=O)O)s1	> 100	> 100	> 100	> 100	> 100	> 100	> 100	> 100	> 100	> 100	> 100	> 100	> 100	> 100	> 100	> 100	–	> 100	–
COc1ccc(Cc2nc3cc(C(F)(F)F)ccc3n2CCCN(C)C)cc1	32.3	75	–	> 100	30.3	> 100	34.6	38.9	29.2	33.2	44	28.7	32.1	40	48.8	44.7	41.9	36.1	29.1
O=P(O)(O)C(O)/C=C/c1ccccc1 (centres undefined)	> 100	> 100	> 100	> 100	> 100	> 100	> 100	> 100	> 100	> 100	–	> 100	> 100	> 100	> 100	> 100	> 100	> 100	> 100
O=C1C2C=CC1C1C(=O)OC(=O)C21 (centres undefined)	> 100	> 100	> 100	> 100	> 100	> 100	> 100	> 100	–	> 100	> 100	> 100	> 100	> 100	> 100	> 100	> 100	> 100	> 100
N#CCC(=O)Nn1c(CC#N)nnc1Cc1ccccc1	> 100	> 100	> 100	> 100	> 100	> 100	> 100	> 100	> 100	> 100	–	> 100	> 100	–	> 100	> 100	–	> 100	> 100
CCOc1ccccc1/C=C1\NC(=O)N(/C=C2\C(=O)Oc3ccccc3C2=O)C1=O	> 100	> 100	> 100	67.9	> 100	> 100	> 100	> 100	> 100	> 100	59.1	> 100	> 100	> 100	> 100	> 100	> 100	> 100	–
COC(=O)C(CCC1C=CCC1)N=Cc1ccccc1 (centres undefined)	> 100	> 100	> 100	> 100	> 100	> 100	> 100	> 100	> 100	> 100	> 100	> 100	> 100	> 100	> 100	> 100	> 100	> 100	–
